Measured values: publication PMC4979471 (Cell Death Discovery, 2015)
Like-named read-outs stand apart in the source and are kept apart here.

What was measured:
Assay in all cases: Kinase selectivity, P33-radiolabeled assay
Type in all cases: biochemical
Settings in all cases: 10 μM ATP
[1] = biological target: T1, PYK2 (Homo sapiens, UniProt Q14289)
T1 construct: purchased Reaction Biology Corp
Procedure, shortened: (§1)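 Values show % enzyme activity normalised to DMSO vehicle. They come from one 10 μM compound concentration run twice, at an ATP level of 10 μM.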

[2] = biological target: T2, CK1g2 (Homo sapiens, UniProt P78368)
T2 construct: purchased Reaction Biology Corp
T2 sequence (P78368 whole entry): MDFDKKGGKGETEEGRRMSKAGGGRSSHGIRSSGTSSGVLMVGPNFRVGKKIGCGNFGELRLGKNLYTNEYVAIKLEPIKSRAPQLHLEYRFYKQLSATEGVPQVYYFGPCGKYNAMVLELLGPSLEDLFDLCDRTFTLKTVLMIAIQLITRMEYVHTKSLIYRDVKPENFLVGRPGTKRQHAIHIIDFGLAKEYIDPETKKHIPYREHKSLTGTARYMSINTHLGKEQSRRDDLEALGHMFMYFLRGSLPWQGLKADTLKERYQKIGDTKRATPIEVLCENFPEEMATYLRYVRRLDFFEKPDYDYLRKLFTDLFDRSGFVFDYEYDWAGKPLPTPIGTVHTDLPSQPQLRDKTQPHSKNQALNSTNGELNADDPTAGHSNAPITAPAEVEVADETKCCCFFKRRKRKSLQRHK
Procedure, shortened: as §1

[3] = biological target: T3, TGFBR2 (Homo sapiens, UniProt P37173)
T3 construct: purchased Reaction Biology Corp
T3 sequence (P37173 23-567): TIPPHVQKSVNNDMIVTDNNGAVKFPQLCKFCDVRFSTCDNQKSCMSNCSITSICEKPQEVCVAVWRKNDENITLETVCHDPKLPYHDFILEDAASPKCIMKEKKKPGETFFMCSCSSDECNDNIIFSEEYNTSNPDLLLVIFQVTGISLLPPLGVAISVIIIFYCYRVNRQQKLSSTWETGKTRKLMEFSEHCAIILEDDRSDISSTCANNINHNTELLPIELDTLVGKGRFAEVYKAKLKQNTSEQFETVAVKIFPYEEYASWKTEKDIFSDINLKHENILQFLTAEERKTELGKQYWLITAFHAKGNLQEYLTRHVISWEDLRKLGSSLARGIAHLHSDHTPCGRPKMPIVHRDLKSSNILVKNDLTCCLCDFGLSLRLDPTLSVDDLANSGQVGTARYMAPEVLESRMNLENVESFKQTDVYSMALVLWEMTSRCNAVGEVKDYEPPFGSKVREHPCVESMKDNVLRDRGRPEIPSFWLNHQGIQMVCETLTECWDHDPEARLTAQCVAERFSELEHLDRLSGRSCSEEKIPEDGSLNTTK
Procedure, shortened: as §1

[4] = biological target: T4, ERK5/MAPK7 (Homo sapiens, UniProt Q13164)
T4 construct: purchased Reaction Biology Corp
T4 sequence (Q13164 whole entry): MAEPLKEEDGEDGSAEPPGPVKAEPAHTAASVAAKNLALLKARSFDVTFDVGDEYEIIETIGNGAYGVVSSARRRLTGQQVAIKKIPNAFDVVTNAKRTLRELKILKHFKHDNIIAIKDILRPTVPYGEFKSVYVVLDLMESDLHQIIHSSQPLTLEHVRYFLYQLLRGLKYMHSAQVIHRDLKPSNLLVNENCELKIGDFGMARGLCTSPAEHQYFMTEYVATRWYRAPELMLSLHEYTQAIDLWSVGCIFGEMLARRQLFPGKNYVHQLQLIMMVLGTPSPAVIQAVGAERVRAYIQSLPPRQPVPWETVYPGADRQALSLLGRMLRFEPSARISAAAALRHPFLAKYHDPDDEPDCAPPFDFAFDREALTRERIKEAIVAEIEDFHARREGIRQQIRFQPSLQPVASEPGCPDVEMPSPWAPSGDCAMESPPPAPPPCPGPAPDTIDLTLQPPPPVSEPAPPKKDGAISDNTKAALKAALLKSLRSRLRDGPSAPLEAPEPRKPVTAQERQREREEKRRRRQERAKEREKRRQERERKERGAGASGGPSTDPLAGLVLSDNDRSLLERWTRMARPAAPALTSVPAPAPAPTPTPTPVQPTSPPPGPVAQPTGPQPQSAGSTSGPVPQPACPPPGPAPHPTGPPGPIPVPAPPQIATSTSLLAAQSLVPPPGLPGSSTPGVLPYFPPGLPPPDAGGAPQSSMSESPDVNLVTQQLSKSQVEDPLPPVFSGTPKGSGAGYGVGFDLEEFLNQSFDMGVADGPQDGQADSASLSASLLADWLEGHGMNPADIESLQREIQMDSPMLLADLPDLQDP
Procedure, shortened: as §1

[5] = biological target: T5, DCAMKL2 (Homo sapiens, UniProt Q8N568)
T5 construct: purchased Reaction Biology Corp
T5 sequence (Q8N568 1-766): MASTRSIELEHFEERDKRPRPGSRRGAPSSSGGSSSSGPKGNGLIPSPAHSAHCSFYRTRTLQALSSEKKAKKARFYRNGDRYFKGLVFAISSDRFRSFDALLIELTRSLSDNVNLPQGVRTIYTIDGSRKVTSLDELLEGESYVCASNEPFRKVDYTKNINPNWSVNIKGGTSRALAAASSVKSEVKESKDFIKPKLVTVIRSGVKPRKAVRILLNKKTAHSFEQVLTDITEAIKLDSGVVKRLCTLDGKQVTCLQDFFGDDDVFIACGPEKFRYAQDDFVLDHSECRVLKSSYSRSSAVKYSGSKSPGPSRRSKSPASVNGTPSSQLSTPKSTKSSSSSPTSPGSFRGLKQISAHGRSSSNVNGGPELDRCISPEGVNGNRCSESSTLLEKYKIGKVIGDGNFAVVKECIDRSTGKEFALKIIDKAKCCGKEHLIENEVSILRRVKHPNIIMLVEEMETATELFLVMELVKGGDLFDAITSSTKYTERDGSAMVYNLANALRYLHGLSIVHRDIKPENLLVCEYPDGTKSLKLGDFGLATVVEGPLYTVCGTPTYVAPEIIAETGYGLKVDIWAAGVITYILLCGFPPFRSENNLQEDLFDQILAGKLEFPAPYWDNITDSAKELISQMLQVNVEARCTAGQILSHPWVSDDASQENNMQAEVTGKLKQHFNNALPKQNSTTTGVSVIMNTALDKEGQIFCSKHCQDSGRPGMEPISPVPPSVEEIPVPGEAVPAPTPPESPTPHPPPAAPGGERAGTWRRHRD
Procedure, shortened: as §1

[6] = biological target: T6, ZAP70 (Homo sapiens, UniProt P43403)
T6 construct: purchased Reaction Biology Corp
T6 sequence (P43403 1-619): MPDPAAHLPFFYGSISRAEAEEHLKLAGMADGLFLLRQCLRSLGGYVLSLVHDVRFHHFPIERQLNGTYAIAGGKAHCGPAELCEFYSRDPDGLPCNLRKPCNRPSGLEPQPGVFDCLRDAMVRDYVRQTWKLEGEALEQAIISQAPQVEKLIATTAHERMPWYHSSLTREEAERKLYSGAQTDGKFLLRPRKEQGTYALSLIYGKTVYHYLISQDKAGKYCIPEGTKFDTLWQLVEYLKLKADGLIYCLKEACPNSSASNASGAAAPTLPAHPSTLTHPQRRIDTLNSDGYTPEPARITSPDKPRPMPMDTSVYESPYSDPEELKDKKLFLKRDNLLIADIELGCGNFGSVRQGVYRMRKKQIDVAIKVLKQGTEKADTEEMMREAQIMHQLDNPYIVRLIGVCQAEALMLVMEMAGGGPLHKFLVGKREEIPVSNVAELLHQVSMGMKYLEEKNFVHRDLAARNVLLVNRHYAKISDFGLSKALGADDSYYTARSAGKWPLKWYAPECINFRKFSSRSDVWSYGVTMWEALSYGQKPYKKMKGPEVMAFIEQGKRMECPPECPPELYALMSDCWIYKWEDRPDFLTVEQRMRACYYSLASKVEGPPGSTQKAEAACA
Procedure, shortened: as §1

[7] = biological target: T7, PKCa (Homo sapiens, UniProt P17252)
T7 construct: purchased Reaction Biology Corp
Procedure, shortened: as §1

[8] = read-out: % Enzyme Activity (relative to DMSO controls) AVG
[9] = read-out: % Enzyme Activity (relative to DMSO controls) Data 1
[10] = read-out: % Enzyme Activity (relative to DMSO controls) Data 2

T1 sequence (Q14289 whole entry): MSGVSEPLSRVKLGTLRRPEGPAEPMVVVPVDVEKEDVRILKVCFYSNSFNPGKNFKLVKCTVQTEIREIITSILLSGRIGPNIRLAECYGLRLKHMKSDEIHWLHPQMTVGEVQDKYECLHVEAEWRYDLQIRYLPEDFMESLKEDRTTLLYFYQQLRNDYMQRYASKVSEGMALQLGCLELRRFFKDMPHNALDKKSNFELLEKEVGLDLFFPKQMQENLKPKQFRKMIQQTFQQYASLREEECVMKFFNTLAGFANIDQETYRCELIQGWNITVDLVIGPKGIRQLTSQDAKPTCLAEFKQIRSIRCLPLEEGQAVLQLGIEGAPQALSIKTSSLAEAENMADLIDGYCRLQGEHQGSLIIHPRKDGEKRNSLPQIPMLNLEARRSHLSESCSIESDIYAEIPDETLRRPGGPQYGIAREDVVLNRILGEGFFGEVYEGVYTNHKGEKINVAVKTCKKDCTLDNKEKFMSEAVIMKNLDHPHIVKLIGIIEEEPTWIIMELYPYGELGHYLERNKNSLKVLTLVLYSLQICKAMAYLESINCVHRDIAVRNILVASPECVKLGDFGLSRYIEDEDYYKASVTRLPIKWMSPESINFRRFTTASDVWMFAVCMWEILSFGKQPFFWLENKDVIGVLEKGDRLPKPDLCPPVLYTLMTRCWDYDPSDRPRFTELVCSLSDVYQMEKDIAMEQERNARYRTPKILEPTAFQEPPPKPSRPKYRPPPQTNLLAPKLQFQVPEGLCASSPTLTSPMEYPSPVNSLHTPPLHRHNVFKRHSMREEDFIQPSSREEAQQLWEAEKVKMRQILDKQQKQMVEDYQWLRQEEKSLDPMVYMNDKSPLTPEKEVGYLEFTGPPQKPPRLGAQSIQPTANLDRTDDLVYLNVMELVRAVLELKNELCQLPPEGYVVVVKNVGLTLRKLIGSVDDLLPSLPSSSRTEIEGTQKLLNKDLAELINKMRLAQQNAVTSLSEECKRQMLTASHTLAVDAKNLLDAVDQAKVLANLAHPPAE

`CC(C)(C)C(=O)N1N=CC[C@H]1c1ccccc1` [GSK′963] was tested, and the remaining activity at 10 µM [1, 8] was 103%, the remaining activity at 10 µM [1, 9] was 103% and the remaining activity at 10 µM [1, 10] was 103%. For the same molecule, the remaining activity at 10 µM [2, 8] was 112%, the remaining activity at 10 µM [2, 9] was 112% and the remaining activity at 10 µM [2, 10] was 111%. The remaining activity at 10 µM [3, 8] was 116%, the remaining activity at 10 µM [3, 9] was 119% and the remaining activity at 10 µM [3, 10] was 114%. For the same molecule, the remaining activity at 10 µM [4, 8] was 97.8%, the remaining activity at 10 µM [4, 9] was 95.5% and the remaining activity at 10 µM [4, 10] was 100%. The remaining activity at 10 µM [5, 8] was 101%, the remaining activity at 10 µM [5, 9] was 100% and the remaining activity at 10 µM [5, 10] was 102%. For the same molecule, the remaining activity at 10 µM [6, 8] was 111%, the remaining activity at 10 µM [6, 9] was 111% and the remaining activity at 10 µM [6, 10] was 111%. For the same molecule, the remaining activity at 10 µM [7, 8] was 96.9%, the remaining activity at 10 µM [7, 9] was 95.7% and the remaining activity at 10 µM [7, 10] was 98%.
